# In PubChem BioAssay (NCI):
# “And” between values parts separate entries of the source, which are not always exact repeats. Identical values can stand only once.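 Exposure lasted 48 hours, with cells grown in 96-well plates and compounds tested at five concentrations. Abbreviation: GI50, concentration required for 50% inhibition of growth. TGI: concentration producing complete growth inhibition.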
# Experiments:
# Test in all cases: inhibition of tumour cell growth, NCI panel, 48 h
# COLO 205 colon = system: COLO 205 colon
# DU-145 prostate = system: DU-145 prostate
# HS 578T breast = system: HS 578T breast
# HT29 colon = system: HT29 colon
# MDA-MB-231 breast = system: MDA-MB-231 breast
# NCI-H460 lung = system: NCI-H460 lung
# SF-295 CNS = system: SF-295 CNS
# UACC-257 melanoma = system: UACC-257 melanoma
# HOP-92 NSCLC = system: HOP-92 NSCLC
# SK-OV-3 ovarian = system: SK-OV-3 ovarian
Compound,GI50 (COLO 205 colon),TGI (COLO 205 colon),GI50 (DU-145 prostate),TGI (DU-145 prostate),GI50 (HS 578T breast),TGI (HS 578T breast),GI50 (HT29 colon),TGI (HT29 colon),GI50 (MDA-MB-231 breast),TGI (MDA-MB-231 breast),GI50 (NCI-H460 lung),TGI (NCI-H460 lung),GI50 (SF-295 CNS),TGI (SF-295 CNS),GI50 (UACC-257 melanoma),TGI (UACC-257 melanoma),TGI (HOP-92 NSCLC),TGI (SK-OV-3 ovarian),GI50 (SK-OV-3 ovarian),GI50 (HOP-92 NSCLC)
C=C(CN1CCN(c2cccc(C(F)(F)F)n2)CC1)c1ccc(C(=S)Nc2ccccc2N)cc1,3.19 µM,11.8 µM,6.99 µM,> 100 µM,3.52 µM,> 100 µM,3.05 µM,18.2 µM,2.52 µM,8.9 µM,2.99 µM,18.8 µM,3.48 µM,> 100 µM,3.33 µM,18.8 µM,–,–,–,–
COc1ccc2oc(C(=O)O)c3c2c1CCC3,–,> 100 µM,–,–,–,–,–,> 100 µM,–,–,–,> 100 µM,–,> 100 µM,–,> 100 µM,> 100 µM,> 100 µM,–,–
COc1ccc(-c2nc(N3CCN(C(=O)C4CCCCC4)CC3)c3c4c(sc3n2)CCCC4)cc1,> 100 µM,> 100 µM,> 100 µM,> 100 µM,24.7 µM,> 100 µM,> 100 µM,> 100 µM,19.4 µM,82.8 µM,> 100 µM,> 100 µM,26.2 µM,85.1 µM,> 100 µM,> 100 µM,–,71.7 µM,25.2 µM,–
COc1ccc(OC(C(=O)O)c2ccccc2)c2c1CCCC2=O (stereo not drawn),–,> 100 µM,–,–,–,–,–,> 100 µM,–,–,–,> 100 µM,–,> 100 µM,–,> 100 µM,> 100 µM,> 100 µM,–,–
O=C1c2ccccc2C(=O)N1C/C=C/CO,–,> 100 µM,–,–,–,–,–,–,–,–,–,> 100 µM,–,–,–,> 100 µM,–,> 100 µM,–,–
c1ccc2c(c1)[nH]c1c2nc2ncccn21,–,–,–,–,–,–,–,> 100 µM,–,–,–,> 100 µM,–,> 100 µM,–,> 100 µM,> 100 µM,> 100 µM,–,–
CC1=C[P+](Cc2ccccc2)(c2ccccc2)CC1 (stereo not drawn),–,> 100 µM,–,–,–,–,–,> 100 µM,–,–,–,> 100 µM,–,> 100 µM,–,> 100 µM and 78 µM,–,> 100 µM,–,–
C/C(=C(\c1ccc(OCCN2CCCCCC2)cc1)c1ccc(OC(=O)Cc2ccccc2)cc1)c1ccc(Cl)cc1,2.8 µM,5.56 µM,3.15 µM,6.32 µM,2.86 µM,6.52 µM,1.05 µM,4.01 µM,3.04 µM,5.69 µM,2.64 µM,5.2 µM,2.56 µM,4.97 µM,3.25 µM,6.22 µM,–,15.6 µM,4.87 µM,–
COc1ccc(-c2cc(-c3ccc(O)cc3)nc3n[nH]c(N)c23)cc1,14.6 µM,32.4 µM,15.3 µM,36.5 µM,19.6 µM,43.3 µM,22.6 µM,> 100 µM,14.9 µM,50.3 µM,21.6 µM,58.2 µM,18.5 µM,51.9 µM,21.8 µM,56.9 µM,28.7 µM,–,–,11.9 µM
CNC(=O)c1cccc2c(Nc3ccc(NS(C)(=O)=O)cc3OC)c3cccc(C)c3nc12,–,5.24 µM,–,–,–,–,–,3.69 µM,–,–,–,0.816 µM,–,0.555 µM,–,10.6 µM,3.67 µM,0.907 µM,–,–
C=C(C)[C@@H]1CC[C@]2(CO)CC[C@]3(C)[C@H](CC[C@@H]4[C@@]5(C)CCC(NCCc6ccc(O)cc6)C(C)(C)[C@@H]5CC[C@]43C)[C@@H]12 (stereo partly drawn),1.12 µM,2.68 µM,1.62 µM,3.03 µM,–,–,1.09 µM,2.49 µM,1.64 µM,3.09 µM,1.53 µM,3 µM,–,–,1.73 µM,3.37 µM,2.95 µM,3.21 µM,1.77 µM,1.46 µM
CCOc1ccccc1NC(=O)CCc1n[nH]c(=S)o1,–,–,–,–,–,–,–,> 100 µM,–,–,–,–,–,> 100 µM,–,> 100 µM,> 100 µM,> 100 µM,–,–
O=S(O)CCCSSc1ccccc1,–,> 100 µM,–,–,–,–,–,> 100 µM,–,–,–,> 100 µM,–,> 100 µM,–,> 100 µM,–,> 100 µM,–,–
O=C(NC1C2CC3CC(C2)CC1C3)c1cc(/C=C/c2ccccc2)[nH]c(=S)n1 (stereo not drawn),–,> 100 µM,–,–,–,–,–,–,–,–,–,> 100 µM,–,> 100 µM,–,> 100 µM,–,> 100 µM,–,–
COc1ccc2nc3ccccc3c(NCCCN(C)CCCl)c2c1,–,1.65 µM,–,1.48 µM,–,3.85 µM,–,2.66 µM,–,–,–,1.07 µM,–,2.44 µM,–,2.24 µM,1.24 µM,3.34 µM,–,–
COc1ccc(CNc2nc3cc(N)cc(N)c3nc2-c2ccccc2)cc1,15.5 µM,34.1 µM,21.7 µM,58 µM,26.9 µM,> 100 µM,24.5 µM,60.2 µM,2.9 µM,13.8 µM,20.5 µM,48.4 µM,17.8 µM,32.4 µM,16.3 µM,30.4 µM,37.2 µM,–,–,13 µM
CCCCCCc1nc2nc(Cl)c(Cl)nc2[nH]1,8.04 µM,> 100 µM,83.2 µM,> 100 µM,> 100 µM,> 100 µM,> 100 µM,> 100 µM,35.9 µM,> 100 µM,5.59 µM,> 100 µM,–,–,3.02 µM,> 100 µM,7.4 µM,> 100 µM,> 100 µM,1.99 µM
O=C1OC(c2ccccc2)(c2cc(Br)c(O)c(Br)c2)c2ccccc21 (stereo not drawn),18.2 µM,39.4 µM,27.4 µM,> 100 µM,18.5 µM,57.3 µM,–,–,25.9 µM,86.1 µM,19.6 µM,43.9 µM,17.5 µM,59.1 µM,35.4 µM,> 100 µM,40.5 µM,53.7 µM,21.4 µM,16.6 µM
OCC1OC(n2cnc3c(Cl)nc(Cl)cc32)C(O)C1O (stereo not drawn),> 100 µM,> 100 µM,> 100 µM,> 100 µM,19.7 µM,> 100 µM,> 100 µM,> 100 µM,–,–,> 100 µM,> 100 µM,> 100 µM,> 100 µM,–,–,> 100 µM,> 100 µM,> 100 µM,37.4 µM
